Measured values: ChEMBL document CHEMBL2074183, “Purification of the human apical conjugate export pump MRP2 reconstitution and functional characterization as substrate-stimulated ATPase” (Eur J Biochem, 1999)

Molecular target: ATP-binding cassette sub-family C member 2 (Homo sapiens, UniProt Q92887)
Assay: TP_TRANSPORTER: ATP hydrolysis in MRP2 reconstituted into proteoliposome
Type: functional, subcellular

Chain of ATP-binding cassette sub-family C member 2 (Q92887 whole entry): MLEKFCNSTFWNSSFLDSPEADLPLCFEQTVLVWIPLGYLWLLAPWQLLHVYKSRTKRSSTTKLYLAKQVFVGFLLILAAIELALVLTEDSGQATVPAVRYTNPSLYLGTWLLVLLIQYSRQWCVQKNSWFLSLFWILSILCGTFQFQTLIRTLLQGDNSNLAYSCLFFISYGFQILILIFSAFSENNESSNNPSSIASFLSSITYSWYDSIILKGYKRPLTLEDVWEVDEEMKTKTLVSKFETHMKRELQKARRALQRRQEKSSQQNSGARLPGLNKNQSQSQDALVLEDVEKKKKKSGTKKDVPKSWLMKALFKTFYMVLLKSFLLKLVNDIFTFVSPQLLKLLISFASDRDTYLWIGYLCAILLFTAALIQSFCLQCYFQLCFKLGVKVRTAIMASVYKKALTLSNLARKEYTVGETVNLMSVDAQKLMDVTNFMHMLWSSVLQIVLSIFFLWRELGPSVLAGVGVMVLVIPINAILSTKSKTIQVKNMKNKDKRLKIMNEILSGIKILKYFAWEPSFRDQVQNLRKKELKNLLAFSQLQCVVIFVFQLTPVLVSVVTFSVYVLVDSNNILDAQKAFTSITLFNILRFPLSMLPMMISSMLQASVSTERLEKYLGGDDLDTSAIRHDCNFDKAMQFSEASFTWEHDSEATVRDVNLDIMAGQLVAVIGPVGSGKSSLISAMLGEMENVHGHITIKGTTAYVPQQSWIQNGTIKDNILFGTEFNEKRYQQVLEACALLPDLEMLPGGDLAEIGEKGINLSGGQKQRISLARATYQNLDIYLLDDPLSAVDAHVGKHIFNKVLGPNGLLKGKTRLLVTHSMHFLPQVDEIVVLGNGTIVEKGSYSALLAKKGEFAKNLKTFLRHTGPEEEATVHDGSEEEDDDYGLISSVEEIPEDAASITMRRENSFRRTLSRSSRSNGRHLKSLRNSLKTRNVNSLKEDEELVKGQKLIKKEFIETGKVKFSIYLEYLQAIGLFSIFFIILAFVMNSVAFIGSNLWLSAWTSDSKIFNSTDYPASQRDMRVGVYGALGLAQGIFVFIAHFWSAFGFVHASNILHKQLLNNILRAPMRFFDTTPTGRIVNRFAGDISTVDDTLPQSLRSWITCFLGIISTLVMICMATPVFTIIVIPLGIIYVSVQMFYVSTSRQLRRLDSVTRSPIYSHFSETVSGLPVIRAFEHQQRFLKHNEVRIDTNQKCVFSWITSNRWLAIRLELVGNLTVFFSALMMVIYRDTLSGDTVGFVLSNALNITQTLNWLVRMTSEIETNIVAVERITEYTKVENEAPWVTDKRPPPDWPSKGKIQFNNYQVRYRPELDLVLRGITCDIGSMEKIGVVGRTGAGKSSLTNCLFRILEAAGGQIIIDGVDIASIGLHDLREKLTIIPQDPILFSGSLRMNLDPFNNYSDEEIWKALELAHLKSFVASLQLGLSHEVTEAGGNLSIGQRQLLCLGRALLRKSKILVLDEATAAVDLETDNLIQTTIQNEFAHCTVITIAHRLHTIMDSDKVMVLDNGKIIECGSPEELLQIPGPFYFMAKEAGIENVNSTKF

Structure (SMILES) | Activity
CCCCCCCCCCSC[C@H](NC(=O)CC[C@H](N)C(=O)O)C(=O)NCC(=O)O | substrate [+]
N[C@@H](CCC(=O)N[C@@H](CS)C(=O)NCC(=O)O)C(=O)O [GLUTATHIONE] | substrate [+]
